Measured values reported in ChEMBL document CHEMBL1201862, “PubChem BioAssay data set” (2004).
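Tested at 5 concentrations; 48 h exposure; 96-well plates; endpoints linearly interpolated, else capped at highest concentration. GI50 marks 50% less growth.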 Activity calls are given as the source filed them. Cut-off read from the data, not from the text of the source: active = GI50 up to about 1.1 µM and inactive = higher.

Experiments:
Test in all cases: growth of human tumour cells (NCI), 48 h
[1] = tested on: SF-295
[2] = tested on: UACC-257
[3] = tested on: UACC-62
[4] = tested on: HT-29
[5] = tested on: MDA-MB-231
[6] = tested on: SR
[7] = tested on: RXF 393
[8] = tested on: A498
[9] = tested on: RPMI-8226
[10] = tested on: K562
[11] = tested on: OVCAR-8
[12] = tested on: EKVX
[13] = tested on: NCI/ADR-RES
[14] = tested on: ACHN
[15] = tested on: HL-60
[16] = tested on: NCI-H23
[17] = tested on: MCF7
[18] = tested on: Malme-3M
[19] = tested on: Hs-578T
[20] = tested on: SNB-75

Measured: GI50

O/N=C(/C(Cl)=C(Cl)Cl)C(Cl)Cl
inactive: [1] 19.2 µM | [2] 19.6 µM | [3] 24.7 µM | [4] 16.7 µM | [5] 19.2 µM | [6] 10.8 µM | [7] 16.3 µM | [8] > 100 µM | [9] 14.2 µM | [10] 13.3 µM | [11] 23.9 µM | [12] 42.5 µM | [13] 32.2 µM | [14] 17.9 µM | [15] 8.28 µM | [16] 14.9 µM | [17] 25.6 µM | [18] 28.8 µM | [19] 19.1 µM | [20] 19 µM

C1=CC2C=CC(C=C1)P2c1ccccc1 (stereo not given)
inactive: [1] > 100 µM | [2] > 100 µM | [3] > 100 µM | [4] > 100 µM | [5] > 100 µM | [6] > 100 µM | [7] > 100 µM | [8] > 100 µM | [9] > 100 µM | [10] > 100 µM | [11] > 100 µM | [12] > 100 µM | [13] > 100 µM | [14] > 100 µM | [15] > 100 µM | [16] > 100 µM | [17] > 100 µM | [18] > 100 µM | [19] > 100 µM | [20] > 100 µM

C[n+]1cccc2ccc3cccnc3c21
inactive: [1] 43.6 µM | [2] 41.9 µM | [3] 55.3 µM | [4] 28.2 µM | [5] 83.6 µM | [6] > 100 µM | [7] 46.3 µM | [8] 32.5 µM | [9] 4.91 µM | [10] > 100 µM | [11] 12.3 µM | [12] 6.84 µM | [13] > 100 µM | [14] 20.9 µM | [15] > 100 µM | [16] 18.2 µM | [17] 38.5 µM | [18] 16.1 µM | [19] 12.7 µM | [20] 23.6 µM

CC1=NN(C(=O)CC(=O)Nc2cccc(C)c2)C(=O)C1/N=N\c1ccc(S(=O)(=O)c2ccc(/N=N/C3C(=O)N(C(=O)CC(=O)Nc4cccc(C)c4)N=C3C)cc2)cc1 (stereo not given)
inactive: [1] > 100 µM | [2] > 100 µM | [3] > 100 µM | [4] > 100 µM | [5] > 100 µM | [6] > 100 µM | [7] > 100 µM | [8] > 100 µM | [9] > 100 µM | [10] > 100 µM | [11] > 100 µM | [12] > 100 µM | [13] > 100 µM | [14] > 100 µM | [15] > 100 µM | [16] > 100 µM | [17] > 100 µM | [18] 85.5 µM | [19] > 100 µM | [20] > 100 µM
